# pEC50: −log10 of the molar value.
# Tests used:
# [1] = tested on: IFN mediated JAK/STAT pathway (ISG54 promoter); assay: Activation of the JAK/STAT pathway in HEKBlue IFN-α/β cells (SEAP); assay type: cell-based; conditions: HEK-Blue; 24 h, QUANTI-Blue, OD 650 nm; read-out: EC50 of activation of the JAK/STAT pathway (secreted alkaline phosphatase)
# Procedure: The cells were incubated for 24 h in the presence of several treatments (Example 1, IFNα, and IFNλ3) and the supernatants were measured for the amount of the secreted alkaline phosphatase using QUANTI-Blue™ (InvivoGen) at the optical density of 650 nm. […] The activation of the pathway by IFNα (PBL) and IFNλ3 (R&D Systems Inc.) are shown as positive controls.
# [2] = tested on: HCV replication in 1b HCV replicon cells; assay: siRNA knockdown of JAK/STAT pathway factors in 1b HCV replicon cells; assay type: cell-based, Hepatitis C virus; conditions: 2 μM, 30 h, 50 nM siRNA
# Procedure: 50 nM of siRNA against each gene (Dharmacon, on-target SMART pool: L-020209-00-0005 (IFNAR1), L-015411-00-0005 (IFNAR2), L-007981-00-0005 (IL28RA), L-007926-00-0005 (IL10RB), L-011-57-00-0005(IFNGR1), L-012713-00-0005 (IFNGR2), L-003145-00-0005 (JAK1), L-003146-00-0005 (JAK2), L-003182-00-0005 (Tyk2), L-003147-00-0 005 (JAK3), L-003543-00-0005 (STAT1), L-012064-00-0005 (STAT2)) was transfected in the 1b HCV replicon cells using lipofectamine RNAiMax™ (Invitrogen) according to the manufacturer's protocol. A scrambled irrelevant smart pool control siRNA was included as a control (IRR). After 3 days post transfection, the cells were treated with DMSO, IFNα (5 U/ml), IFNγ (100 U/ml), and Example 1 (2 μM) in triplicate for 30 h. The cells were harvested with Bright-Glo (Promega) and the HCV replication was measured by luminescence. […] To measure the efficiency of the knockdown, total RNA was harvested from the siRNA-transfected cells at day 3 post transfection and analyzed by real time RT-PCR.
# human JAK1 = target: T1, human JAK1 (Homo sapiens, UniProt P23458); assay: JAK1 reconstitution in U4A and 2fGH cells (phosphor-STAT1 western blot, Taqman mRNA); assay type: cell-based
# T1 construct: expressed in transfected cells; host or cells: U4A cells (JAK1-deficient derivative of the human fibroblast line 2fGH), transduced with a baculovirus mammalian expression system
# Procedure: 2fGH and U4A cells were obtained from the Cleveland Clinic. 2fGH is a human fibroblast cell line and U4A cell line is a derivative 2fGH harboring a defect in JAK1 expression (Muller, et al., Nature 366, 129-135 (1993)). Green fluoroscent protein (GFP) or human JAK1 was transduced in U4A cells by baculovirus mammalian expression system. After 24 hours post transduction, the cells were treated with DMSO, Example 1 (10 μM), IFNα (100 U/ml), IFNβ (100 U/ml), or IFNγ (100 U/ml). Untransduced U4A cells and 2fGH cells were included as controls for 6 or 18 hours. The cells were harvested at indicated time points and used for detecting phosphor-STAT1 by western blot (FIG. 10, panel A) or for mRNA analysis by Taqman quantitation (FIG. 10, panel B).
# The total cell lysates were analyzed on a 4-20% SDS-PAGE gradient gel and followed by immunoblotting using anti-phopho STAT1 antibody (Cell Signaling). The level of actin was monitored as a loading control. The bands were visualized by the alkaline phosphatase activity conjugated with the secondary antibody (Promega) using ProtoBlot II AP system (Promega).
# Gene expression was measured using TaqMan Fast Universal PCR Master Mix (Applied Biosystems) and gene specific probes and murine primers in HT7900 FAST System (Invitrogen). As housekeeping genes, actin and GAPDH were used for normalization. Data was calculated by the ΔΔCt method and fold change determined compared to non-treated control samples.
# T1 sequence (P23458 whole entry): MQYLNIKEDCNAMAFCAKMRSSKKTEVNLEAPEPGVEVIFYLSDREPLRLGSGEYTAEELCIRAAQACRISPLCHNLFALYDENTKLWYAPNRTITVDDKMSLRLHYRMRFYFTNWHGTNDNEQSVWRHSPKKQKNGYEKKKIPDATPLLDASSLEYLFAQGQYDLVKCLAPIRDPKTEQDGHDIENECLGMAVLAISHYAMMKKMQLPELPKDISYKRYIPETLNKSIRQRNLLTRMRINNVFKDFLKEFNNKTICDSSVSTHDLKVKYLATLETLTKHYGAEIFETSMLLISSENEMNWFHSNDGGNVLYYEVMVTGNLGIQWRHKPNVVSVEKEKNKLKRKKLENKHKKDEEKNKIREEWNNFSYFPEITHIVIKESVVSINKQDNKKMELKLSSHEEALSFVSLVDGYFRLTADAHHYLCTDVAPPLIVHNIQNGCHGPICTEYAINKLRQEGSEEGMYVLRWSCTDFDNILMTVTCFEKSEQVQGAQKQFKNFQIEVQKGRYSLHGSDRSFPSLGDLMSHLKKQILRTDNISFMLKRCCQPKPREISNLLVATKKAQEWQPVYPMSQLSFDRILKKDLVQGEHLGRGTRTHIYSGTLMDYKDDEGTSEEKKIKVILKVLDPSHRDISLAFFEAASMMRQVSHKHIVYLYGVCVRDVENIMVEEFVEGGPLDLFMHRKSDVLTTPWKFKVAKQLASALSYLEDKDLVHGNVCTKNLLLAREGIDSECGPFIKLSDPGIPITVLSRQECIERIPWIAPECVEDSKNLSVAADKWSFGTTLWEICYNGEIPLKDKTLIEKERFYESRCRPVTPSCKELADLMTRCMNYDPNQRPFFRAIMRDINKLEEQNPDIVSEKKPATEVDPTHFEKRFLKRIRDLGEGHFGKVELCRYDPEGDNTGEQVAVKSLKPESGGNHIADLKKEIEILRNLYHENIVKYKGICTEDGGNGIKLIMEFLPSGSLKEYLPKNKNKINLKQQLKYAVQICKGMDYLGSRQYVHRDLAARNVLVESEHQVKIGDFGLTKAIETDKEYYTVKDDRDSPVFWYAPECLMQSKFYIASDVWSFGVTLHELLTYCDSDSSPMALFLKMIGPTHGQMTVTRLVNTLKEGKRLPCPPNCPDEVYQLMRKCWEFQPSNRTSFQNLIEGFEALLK
smiles,measurement,setting,value
"FC(F)(F)c1cc(C(F)(F)F)c2ccc3nc(-c4nnco4)cn3c2n1 [Compound 1, 2-[2,4-bis(trifluoromethyl)imidazo[1,2-a]1,8-naphthyridin-8-yl]-1,3,4-oxadiazole]",pEC50,[1],~6.00
same,"antiviral activity after knockdown of IFNAR2, JAK1, STAT1, or STAT2",[2],affected the antiviral activity
same,antiviral activity after knockdown of JAK1,[2],fully abolished
same,antiviral activity after knockdown of other Janus kinases (JAKs),[2],did not show any effect
same,CXCL9 expression in U4A cells transduced with JAK1,human JAK1; 10 μM,marked up-regulation
same,OAS2 mRNA in parental cell line (2fGH),human JAK1; 10 μM,marked increase
same,activation of STAT1 in U4A cells transduced with JAK1,"human JAK1; Example 1 10 μM, IFNα 100 U/ml",activation of STAT1 was observed
same,p-STAT1 in U4A cells (JAK1 deficient) transduced with GFP,"human JAK1; Example 1 10 μM, IFNα 100 U/ml",not present

# Reference: patent US20140249143A1, “Compounds And Methods For Enhancing Innate Immune Responses” (GlaxoSmithKline LLC, priority 2011, published 2014)
